Measured values published in US9770446B2, “Piperidine urea derivatives” (MERCK PATENT GMBH, priority 2013, dated 2017).

How the values were obtained:
[1] = molecular target: T1, GST-tagged Tnks-1 (1023-1327 aa) (Homo sapiens, UniProt O95271); test: TNKS1 activity ELISA (autoparsylation assay); assay type: biochemical
T1 construct: GST-tagged Tnks-1 (1023-1327 aa, prepared in-house); made in house
Protocol: (§1) Description of the TNKS1 and TNKS2 ELISA Assay
(§2) Biochemical Activity Testing of TNKS 1 and 2: Activity ELISA (Autoparsylation Assay)
(§3) For analysis of autoparsylation activity of TNKS 1 and 2 an activity ELISA iss performed: In the first step GST tagged TNKS is captured on a Glutathione coated plate. Then the activity assay with biotinylated NAD is performed in the absence/presence of the compounds. During the enzymatic reaction GST tagged TNKS transfers biotinylated ADP-ribose to itself from biotinylated NAD as co-substrate. For the detection streptavidin-HRP conjugate is added that binds to the biotinylated TNKS and is thereby captured to the plates. The amount of biotinylated resp. autoparsylated TNKS is detected with a luminescence substrate for HRP. The level of the luminescence signal correlates directly with the amount of autoparsylated TNKS and therefore with activity of TNKS.
(§4) The activity ELISA is performed in 384 well Glutathione coated microtiter plates (Express capture Glutathione coated plate, Biocat, Heidelberg, Germany). The plates are pre-equilibrated with PBS. Then the plates are incubated with 50 μl 20 ng/well GST-tagged Tnks-1 (1023-1327 aa, prepared in-house), respectively GST-tagged Tnks-2 (873-1166 aa, prepared in-house) in assay buffer (50 mM HEPES, 4 mM Mg-chloride, 0.05% Pluronic F-68, 2 mM DTT, pH 7.7) overnight at 4° C. The plates are washed 3 times with PBS-Tween-20. The wells are blocked by incubation at room temperature for 20 minutes with 50 μl blocking buffer (PBS, 0.05% Tween-20, 0.5% BSA). Afterwards the plates are washed 3 times with PBS-Tween-20. The enzymatic reaction is performed in 50 μl reaction solution (50 mM HEPES, 4 mM Mg-chloride, 0.05% Pluronic F-68, 1.4 mM DTT, 0.5% DMSO, pH 7.7) with 10 μM bio-NAD (Biolog, Life science Inst., Bremen, Germany) as co-substrate in the absence or presence of the test compound (10 dilution concentrations) for 1 hour at 30° C. The reaction is stopped by 3 times washing with PBS-Tween20. For the detection 50 μl of 20 ng/μl Streptavidin, HRP conjugate (MoBiTec, Göttingen, Germany) in PBS/0.05% Tween-20/0.01% BSA are added and the plates are incubated for 30 minutes at room temperature. After three times washing with PBS-Tween-20 50 μl of SuperSignal ELISA Femto Maximum sensitivity substrate solution (ThermoFisherScientific (Pierce), Bonn, Germany) are added. Following a 1 minute incubation at room temperature luminescence signals are measured with an Envision multimode reader (Perkin Elmer LAS Germany GmbH) at 700 nm. The full value used is the inhibitor-free reaction. The pharmacological zero value used is XAV-939 (Tocris) in a final concentration of 5 μM. The inhibitory values (IC50) are determined using either the program Symyx Assay Explorer® or Condosseo® from GeneData.

[2] = molecular target: T2, GST-tagged Tnks-2 (873-1166 aa) (Homo sapiens, UniProt Q9H2K2); test: TNKS2 activity ELISA (autoparsylation assay); assay type: biochemical
T2 construct: GST-tagged Tnks-2 (873-1166 aa, prepared in-house); made in house
T2 sequence (Q9H2K2 873-1166): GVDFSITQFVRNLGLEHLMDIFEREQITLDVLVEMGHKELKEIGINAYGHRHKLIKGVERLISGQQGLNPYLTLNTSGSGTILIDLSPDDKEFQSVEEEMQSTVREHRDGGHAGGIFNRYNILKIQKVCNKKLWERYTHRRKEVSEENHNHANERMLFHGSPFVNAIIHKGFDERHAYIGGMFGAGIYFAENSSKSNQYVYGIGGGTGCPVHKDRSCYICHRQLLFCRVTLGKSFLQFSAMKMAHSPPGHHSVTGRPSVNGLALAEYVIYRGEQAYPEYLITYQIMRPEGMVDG
Protocol: as §1, §2, §3, §4

[3] = molecular target: T3, GST-tagged Tankyrase-1 (1023-1327 aa) (Homo sapiens, UniProt O95271); test: Tankyrase 1 autoparsylation HTRF enzyme assay; assay type: biochemical; details: read-out: IC50 TNKS1 enzyme assay
T3 construct: GST-tagged Tankyrase-1 (1023-1327 aa)
T3 sequence (O95271 1023-1327): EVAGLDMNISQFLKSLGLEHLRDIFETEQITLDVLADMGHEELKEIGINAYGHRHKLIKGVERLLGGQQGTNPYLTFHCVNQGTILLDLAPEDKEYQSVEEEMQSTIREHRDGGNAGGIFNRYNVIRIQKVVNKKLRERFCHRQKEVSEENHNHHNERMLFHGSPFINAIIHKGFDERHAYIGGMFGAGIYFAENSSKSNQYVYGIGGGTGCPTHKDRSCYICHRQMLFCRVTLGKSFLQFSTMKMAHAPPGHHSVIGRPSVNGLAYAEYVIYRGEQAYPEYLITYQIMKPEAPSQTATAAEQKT
Protocol: (§5) Biochemical activity testing of Tankyrase 1 and 2: Autoparsylation assay
(§6) The autoparsylation assay is run in two steps: the enzymatic reaction in which GST-tagged Tankyrase-1, resp Tankyrase-2 transferred biotinylated ADP-ribose to itself from biotinylated NAD as co-substrate and the detection reaction where a time resolved FRET between cryptate labelled anti-GST bound to the GST tag of the enzyme and Xlent® labelled-streptavidin bound the biotin-parsylation residue is analysed. The autoparsylation activity was detectable directly via the increase in HTRF signal.
(§7) The autoparsylation assay is performed as 384-well HTRF® (Cisbio, Codolet, France) assay format in Greiner low volume nb 384-well microtiter plates and is used for high throughput screen. 250 nM GST-tagged Tankyrase-1 (1023-1327 aa), respectively about 250 nM GST-tagged Tankyrase-2 (873-1166 aa) and 5 μM bio-NAD (Biolog, Life science Inst., Bremen, Germany) as co-substrate are incubated in a total volume of 5 μl (50 mM HEPES, 4 mM Mg-chloride, 0.05% Pluronic F-68, 1.4 mM DTT, 0.5% DMSO, pH 7.7) in the absence or presence of the test compound (10 dilution concentrations) for 90 min at 30° C. The reaction is stopped by the addition of 1 μl 50 mM EDTA solution. 2 μl of the detection solution (1.6 μM SA-Xlent® (Cisbio, Codolet, France), 7.4 nM Anti-GST-K® (Eu-labelled anti-GST, Cisbio, Codolet, France) in 50 mM HEPES, 800 mM KF, 0.1% BSA, 20 mM EDTA, 0.1% CHAPS, pH 7.0) are added. After 1 h incubation at room temperature the HTRF is measured with an Envision multimode reader (Perkin Elmer LAS Germany GmbH) at excitation wavelength 340 nm (laser mode) and emission wavelengths 615 nm and 665 nm. The ratio of the emission signals is determined. The full value used is the inhibitor-free reaction. The pharmacological zero value used is XAV-939 (Tocris) in a final concentration of 5 μM. The inhibitory values (IC50) are determined using either the program Symyx Assay Explorer® or Condosseo® from GeneData.

[4] = molecular target: T4, GST-tagged Tankyrase-2 (873-1166 aa) (Homo sapiens, UniProt Q9H2K2); test: Tankyrase 2 autoparsylation HTRF enzyme assay; assay type: biochemical; details: read-out: IC50 TNKS2 enzyme assay
T4 construct: GST-tagged Tankyrase-2 (873-1166 aa)
T4 sequence (Q9H2K2 873-1166): as the sequence (Q9H2K2 873-1166) above
Protocol: as §5, §6, §7

Tankyrase = test: Cellular inhibition of Tankyrase: Axin2 level in DLD1 cells (Luminex); assay type: cell-based; details: 24 hours, Axin2 increase, read-out: EC50 [M] TNKS cellular assay
Protocol: Measurement of Cellular Inhibition of Tankyrase
Since Tankyrases have been described to modulate cellular level of Axin2 (Huang et al., 2009; Nature) the increase of Axin2 level is used as read-out for determination of cellular inhibition of Tankyrases in a Luminex based assay.
Cells of the colon carcinoma cell line DLD1 are plated in 96 well plates with 1.5×10^4 cells per well. Next day, cells are treated with a serial dilution of test compound in seven steps as triplicates with a final DMSO concentration of 0.3%. After 24 hours, cells are lysed in lysis buffer (20 mM Tris/HCl pH 8.0, 150 mM NaCl, 1% NP40, 10% Glycerol) and lysates are cleared by centrifugation through a 96 well filter plate (0.65 μm). Axin2 protein is isolated from cell lysates by incubation with a monoclonal anti-Axin2 antibody (R&D Systems #MAB6078) that is bound to fluorescent carboxybeads. Then, bound Axin2 is specifically detected with a polyclonal anti-Axin2 antibody (Cell Signaling #2151) and an appropriate PE-fluorescent secondary antibody. The amount of isolated Axin2 protein is determined in a Luminex^200 machine (Luminex Corporation) according to the manufacturer's instruction by counting 100 events per well. Inhibition of Tankyrase by test compounds results in higher levels of Axin2 which directly correlates with an increase of detectable fluorescence. As controls cells are treated with solvent alone (neutral control) and with a Tankyrase reference inhibitor IWR-2 (3E-06 M) which refers as control for maximum increase of Axin2. For analysis, the obtained data are normalized against the untreated solvent control and fitted for determination of the EC50 values using the Assay Explorer software (Accelrys).

T1 sequence (O95271 1023-1327): as the sequence (O95271 1023-1327) above

| Structure (SMILES) | IC50 [1] [nM] | IC50 [2] [nM] | IC50 [3] [nM] | IC50 [4] [µM] | EC50 (Tankyrase) [M] |
| --- | --- | --- | --- | --- | --- |
| COc1cccc(N(C)C(=O)N2CCC(C(=O)c3ccccc3)CC2)c1 [Compound A3, 4-benzoyl-piperidine-1-carboxylic acid (3-methoxy-phenyl)-methyl-amide] | < 300 | < 300 | 300 to 3000 | 0.3 to 3 | 3e-07 to 3e-06 |
| COc1ccc(N(C)C(=O)N2CCC(C(=O)c3ccc(Cl)cc3)CC2)cc1 [Compound A9, 4-(4-chloro-benzoyl)-piperidine-1-carboxylic acid (4-methoxy-phenyl)-methylamide] | < 300 | < 300 | < 300 | 0.3 to 3 | 3e-07 to 3e-06 |
| CN(C(=O)N1CCC(C(=O)c2ccccc2)CC1)c1cccc(C#N)c1 [Compound A10, 4-benzoyl-piperidine-1-carboxylic acid (3-cyano-phenyl)-methyl-amide] | 300 to 3000 | < 300 | 300 to 3000 | 3 to 50 | 3e-06 to 5e-05 |
| CN(C(=O)N1CCC(C(=O)c2ccccc2)CC1)c1ccc(C#N)cc1 [Compound A11, 4-benzoyl-piperidine-1-carboxylic acid (4-cyano-phenyl)-methyl-amide] | < 300 | < 300 | 300 to 3000 | 0.3 to 3 | 3e-07 to 3e-06 |
| CN(C(=O)N1CCC(C(=O)c2ccccc2)CC1)c1cccc(F)c1 [Compound A12, 4-benzoyl-piperidine-1-carboxylic acid (3-fluoro-phenyl)-methyl-amide] | < 300 | < 300 | 300 to 3000 | 0.3 to 3 | 3e-07 to 3e-06 |
| O=C(c1cccc(F)c1)C1CCN(C(=O)N2CCc3ccccc32)CC1 [Compound A19, (2,3-dihydro-indol-1-yl)-[4-(3-fluoro-benzoyl)-piperidin-1-yl]-methanone] | < 300 | < 300 | 300 to 3000 | 0.3 to 3 | 3e-06 to 5e-05 |
| O=C(c1ccc(F)cc1)C1CCN(C(=O)N2CCc3ccccc32)CC1 [Compound A20, (2,3-dihydro-indol-1-yl)-[4-(4-fluoro-benzoyl)-piperidin-1-yl]-methanone] | < 300 | < 300 | 300 to 3000 | 0.3 to 3 | 3e-06 to 5e-05 |
| O=C(c1ccc(Cl)cc1)C1CCN(C(=O)N2CCc3ccccc32)CC1 [Compound A21, [4-(4-chloro-benzoyl)-piperidin-1-yl]-(2,3-dihydro-indol-1-yl)-methanone] | 300 to 3000 | < 300 | 300 to 3000 | 0.3 to 3 | 3e-06 to 5e-05 |
| CN(C(=O)N1CCC(C(=O)c2ccc(-c3cnn(CCN4CCCC4)c3)cc2)CC1)c1ccc(-c2cnn(CCN3CCCC3)c2)cc1 [Compound A37, 4-{4-[1-(2-pyrrolidin-1-yl-ethyl)-1H-pyrazol-4-yl]-benzoyl}-piperidine-1-carboxylic acid methyl-{4-[1-(2-pyrrolidin-1-yl-ethyl)-1H-pyrazol-4-yl]-phenyl}-amide] | < 300 | < 300 |  |  | 3e-07 to 3e-06 |
| CCN(C(=O)N1CCC(C(=O)c2ccc(OC)nc2)CC1)c1ccc(OC)cc1 [Compound A43, N-ethyl-N-(4-methoxyphenyl)-4-(6-methoxypyridine-3-carbonyl)piperidine-1-carboxamide] | < 300 | < 300 |  |  | < 3e-07 |
| COc1ccc(N(C)C(=O)N2CCC(C(=O)c3ccccc3)CC2)cn1 [Compound A44, 4-benzoyl-N-(6-methoxy-3-pyridyl)-N-methyl-piperidine-1-carboxamide] | < 300 | < 300 |  |  | 3e-07 to 3e-06 |
| CCn1cc(-c2ccc(C(=O)C3CCN(C(=O)N(C)c4ccc(OC)nc4)CC3)cc2)cn1 [Compound A48, 4-[4-(1-ethylpyrazol-4-yl)benzoyl]-N-(6-methoxy-3-pyridyl)-N-methyl-piperidine-1-carboxamide] | < 300 | < 300 |  |  | 3e-07 to 3e-06 |
| COc1ccc(N(C)C(=O)N2CCC(C(=O)c3ccc(OC)c(C)c3)CC2)cn1 [Compound A52, 4-(4-methoxy-3-methyl-benzoyl)-N-(6-methoxy-3-pyridyl)-N-methyl-piperidine-1-carboxamide] | < 300 | < 300 |  |  | < 3e-07 |
| COc1ccc(N(C)C(=O)N2CCC(C(=O)c3ccc(OC)nc3)CC2)cc1 [Compound A53, N-(4-methoxyphenyl)-4-(6-methoxypyridine-3-carbonyl)-N-methyl-piperidine-1-carboxamide] | < 300 | < 300 |  |  | 3e-07 to 3e-06 |
| CCn1cc(-c2ccc(C(=O)C3CCN(C(=O)N(C)c4ccc(-c5cnn(CC)c5)cc4)CC3)cc2)cn1 [Compound A57, 4-[4-(1-Ethyl-1H-pyrazol-4-yl)-benzoyl]-piperidine-1-carboxylic acid [4-(1-ethyl-1H-pyrazol-4-yl)-phenyl]-methyl-amide] | < 300 | < 300 |  |  | < 3e-07 |
